In patent US6372727B1, “Metalloporphyrin treatment of neurologic disease” (UAB Research Foundation, priority 1999, dated 2002):
Each block holds one compound with its values, some of them ahead of it.

Assays:
cultured motor neurons = experiment: Protection of cultured motor neurons from growth factor withdrawal; assay type: cell-based
Experimental: Culture Motor neurons were prepared from embryonic day 15 (E15) rat spinal cords by a combination of metrizamide gradient centrifugation and immunopanning with the monoclonal antibody IgG192 (Chandler et al., J. Biol. Chem. 259:6882-6889, 1984) as previously described (Estevez et al., J Neurosci 18:923-931, 1998; Henderson C E, Bloch-Gallego E, Camu W (1995): Purification and culture of embryonic motorneurons. In Cohen J, Wilkin G (eds): Neural Cell Culture: A Practical Approach. Oxford, England: IRL Press, pp 69-81). Long-term cultures of motor neurons were performed as described by Pennica et al. (Pennica et al., Neuron 17:63-74, 1996). Briefly, motor neurons were plated at a density of 200 cells/cm2 on 35 mm dishes precoated with polyornithine-laminin in Neurobasal medium supplemented with B27 (Life Technologies, Grand Island, N.Y.), 2% horse serum, 0.5 mM L-glutamine, 25 μM 2-mercaptoethanol and 25 μM L-glutamate. Every 3-4 days ¾ of the culture medium was replaced by fresh medium lacking L-glutamate and containing sufficient quantities of BDNF or FeTCPP to supplement the 2 ml of medium in the dish. More than 94% of the cells were immunoreactive for the p75 low-affinity neurotrophic receptor (p75NTR) and Islet ½, which are markers for motor neurons. The experiments were repeated at least 2 times using the same lot of Neurobasal medium and B 27 supplement.
The number of motor neurons with neurites longer than 4 soma diameters present in parallel cultures treated with BDNF at a final concentration of 100 pg/ml 24 h after plating or culture media replacement was considered 100% motor neuron survival. FeTCPP was resuspended in complete Neurobasal medium at a 5 mM concentration. Dilutions were performed of the stock solution to add 20 μl per dish.
Rat motor neurons survive many days in culture when brain-derived neurotrophic factor (BDNF) is added to the culture media. Because motor neurons are the cells that preferentially die in ALS, primary cultures of motor neurons represent the best non-animal model of ALS. Withdrawal of BDNF results in apoptotic death of >70% of motor neurons within 24 h. Cell death was correlated with expression of the neuronal form of nitric oxide synthase (nNOS) and the production of peroxynitrite, as evidenced by protein tyrosine nitration. When FeTCPP is added to the culture media in place of BDNF and motor neuron survival is assessed at 24 h, some protection is seen at concentrations as low as 0.01 μM (FIG. 10A). […] Additionally, a comparison of the effect of FETCPP and its tetra-methyl ester derivative, TMeO-FeTCPP, on motor neuron survival at 72 hr.

[1] = test system: ALS-SOD1 (G93A) transgenic mice; experiment: Survival of ALS-SOD1 (G93A) transgenic mice; assay type: in vivo
Experimental: FIG. 13A: Transgenic mice (n=9) were injected intraperitoneally with 3 mg/kg/day of a low molecular weight (844.6) synthetic iron porphyrin. […] Treatment was continued until such time that signs of diaphragm weakness (labored breathing) necessitated sacrifice. A control group of transgenic mice was treated with vehicle only (phosphate-buffered saline). FIG. 13B: Transgenic mice were injected intraperitoneally with 1 mg/kg/day of a low molecular weight (844.6) synthetic iron porphyrin. Treatment began at day 60 prior to the onset of symptoms. A control group of transgenic mice was treated with vehicle only (phosphate-buffered saline).
Mice transgenic for the G93A mutated form of SOD1 are generally accepted as the standard model of motor neuron disease. […] This compound extended the mean survival time by 13 days (from 127 to 140 days) (FIG. 13A).
A group of G93A mice was treated with 1 mg/kg of FeTCPP intraperitoneally beginning at 60 days of age. As with the control group in FIG. 13A, none of the control group in this test survived past 132 days. However, the probability of survival at 140 days was about 37% and at approximately 180 days survival was still at 20%.

[2] = Spectral scans of peroxynitrite-oxidized Mn porphyrins and re-reduction of Mn(IV); assay type: biochemical
Experimental: The peaks at 428 nm (left arrows) are due to Mn(IV)=O (15) whereas the 464 nm peaks (right arrows) are due to Mn(III). […] INSET: The indicated amounts of peroxynitrite were added to solutions of MnTBAP (10 μM) in phosphate buffer and the decrease in 464 nm absorbance was monitored at a data collection rate of 10 points/s. The maximal change in 464 nm absorbance associated with oxidation of Mn(III) to Mn(IV), which occurred in >1 s, was plotted versus peroxynitrite; the concentration at which no further absorbance change occurred was used to establish the reaction stoichiometry.

[3] = MP 5 μM, GSH 2 mM, 0.1 M potassium phosphate pH 7.4, 37° C.
Experimental: Aliquots (14 μl) were removed at 10 min intervals and added to 1.4 of 0.1 M potassium phosphate, pH 7.4 containing 0.2 mM dithionitrobenzoic acid (Ellman's Reagent) and 50 μM EDTA. GSH concentration was determined by the change in 430 nm absorbance. The extinction coefficient at 430 nm was determined to be 13,900 M^−1cm^−1 using a fresh GSH solution standardized by weight.
In order to test the hypothesis that Mn(II)- or Fe(II)-porphyrins would be capable of carrying out two-electron reductions of peroxynitrite and thereby decreasing rather than increasing its reactivity, attempts were made to pre-reduce these transition metal-containing MPs prior to addition of peroxynitrite.

[4] = 1 mg/kg intraperitoneally beginning at 60 days of age

SMILES: O=C(O)c1ccc(-c2c3nc(c(-c4ccc(C(=O)O)cc4)c4ccc([n-]4)c(-c4ccc(C(=O)O)cc4)c4nc(c(-c5ccc(C(=O)O)cc5)c5ccc2[n-]5)C=C4)C=C3)cc1.[Fe+2] [FeTCPP, Iron (III) meso 5,10,15,20-tetrakis-(4-carboxy-phenyl) porphyrin]
survival of cultured motor neurons deprived of growth factors (cultured motor neurons): prolong survival of cultured motor neurons | long-term motor neuron survival compared with BDNF (cultured motor neurons; 0.1 μM and 1.0 μM): as effective as BDNF | maximal cell survival (cultured motor neurons; 0.1 μM, 24 h, in place of BDNF, 100% = BDNF 100 pg/ml): 90% | cell survival (cultured motor neurons; 100 μM, 24 h, in place of BDNF): 90% | dose-response for survival of motor neurons at 72 h (cultured motor neurons; 72 h): virtually identical to the 24 h survival results | lowest concentration at which some protection is seen (cultured motor neurons; added in place of BDNF, survival at 24 h): 0.01 µM | cell survival at day 16 (cultured motor neurons; lower dose (0.1 μM), long-term culture): 90% | toxicity to motor neurons (cultured motor neurons; relatively high concentrations, 100 μM): not toxic | probability of survival at 140 days [1, 4]: about 37% | survival at approximately 180 days [1, 4]: 20% | mean survival time ([1]; 5 mg/kg, treatment from onset of symptoms): 140 days | extension of mean survival time ([1]; 5 mg/kg, treatment from onset of symptoms, versus vehicle): 13 days | progression of motor neuron death in mice ([1]; G93A mutant of Cu,Zn superoxide dismutase transgene): slow the progression of motor neuron death | upper limit of survival time ([1]; administered at the onset of symptoms): about 148 days

oxidation by H2O2 (0.5 mM H2O2, 20 min): did not appear to oxidize
SMILES: C[n+]1ccc(-c2c3nc(c(-c4cc[n+](C)cc4)c4ccc([n-]4)c(-c4cc[n+](C)cc4)c4nc(c(-c5cc[n+](C)cc5)c5ccc2[n-]5)C=C4)C=C3)cc1.[Cl-].[Cl-].[Cl-].[Cl-].[Cl-].[Mn+3] [MnTMPyP, Manganese (III) meso-tetra-(N-methyl-4-pyridyl)-porphine chloride]
time to complete re-reduction to Mn(III) ([2]; 10 μM MP, peroxynitrite 20 μM alone): 30 s | time to complete re-reduction to Mn(III) ([2]; 50 μM H2O2 added before peroxynitrite): 17 s | time to complete re-reduction to Mn(III) ([2]; 50 μM nitrate added before peroxynitrite): 74 s | time to complete re-reduction to Mn(III) ([2]; 50 μM nitrite added before peroxynitrite): 30 s | time to complete re-reduction to Mn(III) ([2]; H2O2 and nitrate or H2O2 and nitrite added together): 17 s | rate of GSH oxidation [3]: 22 µM/min | effect of HOCl on the MP (50 μM HOCl): appeared to destroy the metal-pyrrole center
